In test [1] the test system is secretion of HBeAg by 2.2.15 cells. Put plainly: Inhibition of secretion of HBeAg by Hepatitis B 2.2.15 cell line. Format: cell-based, HBV. The conditions noted are these: 1 μmol/ml. From the text: (§1) Hepatitis B 2.2.15 cell line was transfected by HBV DNA (purchased from Institute of Biochemistry and Cell Biology of Shanghai Institute for Biological Sciences or the National Center for Drug Screening) and used as the cell model for screening anti-HBV drug compounds (See Chinese Journal Of Integrated Traditional and Western Medicine on Liver Diseases, 2004, 14(3): 158). The cell culture medium DMEM (GIBCO Company), bovine serum (Hangzhou Siji Qing Biochemical Manufacturer), G418 (GIBCO Company), 3-(4,5-dimethylthiazol-2-yl)-2,5-diphenyltetrazoliumbromide (Sigma), HBsAg and HBeAg diagnostic kit (Shanghai Kehua Bio-engineering Co., Ltd).
(§2) The test compounds listed in Table 3 below were dissolved in a mixture containing 20 ml 1,2-propylene glycol and 15 ml Tween-80 and diluted with sterile saline water to 2 μmol/ml of the test compound. Then it was mixed with the cell culture medium at equal volume to obtain a solution containing 1 μmol/ml of the tested compound. Cells at the concentration of 1×10^5 cells per milliliter were inoculated to a 24-well plate at 1 ml/well. Supernatant from the cell culture mixture was collected three days later for testing.

The test system of the next test is condyloma acuminata. Put plainly: Clinical use in treating condyloma acuminata. Format: in vivo, human. The source says:
Soft hyperplasia with nipple or cauliflower shaped or other shaped warts were found around the skin of the cunnus or anus. The result from 5% acetate acid white test was positive.
Patients selected for the clinical observation must meet the above standards. Plus the diameter of their skin lesions should equal to or be less than 1 cm. […] Patients who had vaginal yeast, trichomonas, bacteria infection or other complications, chronic diseases, serious liver or kidney diseases or women in pregnancy or lactation were not selected. Treatments to women would not be conducted in their menstrual periods.
50 qualified patients were selected and randomly divided into five groups to be tested with p-hydroxybenzoic acid, gallic acid, ethyl p-hydroxybenzoate, propyl gallate and recombinant human interferon α-2β gel, respectively. The samples of p-hydroxybenzoic acid, gallic acid, ethyl p-hydroxybenzoate and propyl gallate were prepared as described in Example 1. The patients were treated with the test sample to the affected areas three times a day, in the morning, at noon and night. The samples were applied to cover the warts and the patients were required to leave the treated areas exposed and not to move for 20 minutes.
Observation time: 8 days. Patients not cured after 8 days would continue to use the test samples for another 12 weeks, and their prognosis was followed during the 12-week period.
Observed items: the location, shape, size and number of warts were carefully observed and recorded before the treatment.
“Recovered”: all skin lesions had disappeared;
“Obvious Effect”: more than 70% of the skin lesions had disappeared;
“Improved”: more than 30% of the skin lesions had disappeared;
“Not Effective”: less than 30% of the skin lesions had disappeared or the original skin lesions didn't change or even enlarged.

A further test relates to flat warts. Put plainly: Clinical use in treating flat warts. Type of test: in vivo, human. Here is the method:
5 g propyl gallate was mixed with 40 ml 1,2-propylene glycol and heated to dissolve the ingredients. Then 20 ml Tween-80 and 3 ml azone were added into the mixture and mixed well. Sterile distilled water was added to the mixture to reach a final volume of 100 ml.
Clinically, flat warts were seen as slightly raised, smooth, tan or flesh colored bumps ranging in size from 1-5 mm. They typically appeared on the face, backs of hands and arms.
32 male and 28 female patients of 15-46 years old, with the average age of 23 years old, were selected for the test. These patients have had flat warts for any time from 2 weeks to 2 years. Some of the patients have tried other treatment methods for the warts. But no one had undertaken any treatment for the warts in the past 4 weeks. And no one had taken any medicine in the past 2 weeks.
The patients were randomly divided into two groups of 30 patients each. One group was treated with propyl gallate micro emulsion, the other group with 5% imiquimod cream (made by Sichuan Ming Xin Pharmaceutical Co.), which is a medicine often used for treating flat warts. The test samples were applied to the affected areas of the patient groups three times a day, in the morning, at noon and night. The treatment period was 20 days. The treatment effect was tracked for one year.
“Recovered”: all warts had disappeared or faded, the skin became flat, no new warts appeared;
“Obvious Effect”: more than 70% of the warts had disappeared, the bottom of the warts had shrunk, the top of the warts had flattened;
“Improved”: more than 30% of the warts had disappeared, the top of the warts had flattened;
“Not Effective”: less than 30% of the warts had disappeared, no change to the warts, or some new warts appeared.

Another test relates to cervical erosion. Kind of test: Clinical use of propyl gallate in treating cervical erosion. Format: in vivo, human. The following applies: for total effectiveness rate: recovered or improved. Here is the method:
4 g propyl gallate was mixed with 40 ml 1,2-propylene glycol and heated to let the ingredients to dissolve. Sterile distilled water was added to the mixture to reach a final volume of 100 ml. 28 married female patients of 22-50 years old were selected for the test. […] The patients were also tested for the absence of vaginal yeast infection or trichomoniasis or sexually transmitted diseases. The patients were randomly divided into two groups of 14 patients each. One group was treated with propyl gallate micro emulsion, the other group with interferon-α suppository (made by Wuhan Tian'ao Pharmaceutical Co.). The treatment was started three days after a patient's last menstrual period. The propyl gallate micro emulsion was applied to the mucosa surfaces with cervical erosion every other day for 30 days. Out of the group treated with propyl gallate, 7 patients had the medicine applied to them by medical professionals at a hospital, the other 7 patients applied the medicine by themselves at home. On the other hand, an interferon-α suppository was used by each patient in the control group once a day before sleep for 30 days. “Recovered”: the cervical skin became smooth, cervical erosion had disappeared; […] The effectiveness of treatment was calculated based on the number of patients that were “recovered” or “improved”. Among patients of the propyl gallate group who were treated at the hospital, the “recovered” rate was about 81%, the “improved” rate was about 15%, and the total effectiveness rate was about 96%. Among patients of the propyl gallate group who were treated at home, the “recovered” rate was about 32%, the “improved” rate was about 55%, and the total effectiveness rate was about 87%. Among patients treated with interferon-α suppository, the “recovered” rate was about 22%, the “improved” rate was about 57%, and the total effectiveness rate was about 79%.

Test [2] concerns secretion of HBsAg by 2.2.15 cells. Kind of test: Inhibition of secretion of HBsAg by Hepatitis B 2.2.15 cell line. Format: cell-based, HBV. The following applies: 1 μmol/ml.
From the text: as §1, §2

The mark [3] stands for this setting: 2.2.15 cells, supernatant collected three days later.
[4] abbreviates: number of patients of 30 per group, three times a day, 20 days.
The mark [5] stands for this setting: patients treated at home (7), every other day for 30 days.

With `CCCOC(=O)c1cc(O)c(O)c(O)c1` [Propyl gallate], in test [1], the “effect on the secretion of HBeAg by the 2.2.15 cells (in words)” value is on record as “had inhibition effect”; the “inhibition of HBeAg secretion compared with gallic acid and 3,4-dihydroxybenzoic acid” value is listed as “more effective”. Also, the “HBeAg Inhibition Rate” value in test [1] (setting [3]) is listed as 12.04%. The “treatment effect compared to recombinant human interferon α-2β gel” value with condyloma acuminata (condyloma acuminata patients, 10% micro emulsion) is “more apparent treatment effect”. Further, the “Recovered, 1-4 days” value in the test on condyloma acuminata (number of patients (50 patients in five groups), 10% micro emulsion on affected areas three times a day, all skin lesions disappeared) turned out to be 7. Also, the “Recovered, 5-8 days” value with condyloma acuminata (number of patients, 10% micro emulsion three times a day, all skin lesions disappeared) is given as 1. For the same compound, the “Obvious Effect, 1-4 days” value with condyloma acuminata (number of patients, more than 70% of the skin lesions disappeared) stood at 2. In the test with flat warts (20 days treatment), the “effectiveness in treating flat warts compared with 5% imiquimod cream” value is given as “more effective”. In addition, the “recurrence of the warts in recovered patients” value with flat warts (followed for a year) is on record as “none had recurrence”. Moreover, in the test on flat warts (number of patients of 30 per group, applied three times a day, 20 days), the Recovered was determined as 22. In the test on flat warts (setting [4]), the Improved stood at 2, the “Not Effective” value stood at 1 and the “Obvious Effect” value is on record as 5. Also, in the test with flat warts (patients recovered or with obvious effect, of 30 per group), the “Effective Rate” value is 90%. In the test with cervical erosion (setting [5]), the ““improved” rate” value is recorded as “about 55%” and the ““recovered” rate” value was “about 32%”. The total effectiveness rate result in the test on cervical erosion (patients treated at home (7)) is “about 87%”. Besides, in the test on cervical erosion (patients treated at the hospital (7), 4% micro emulsion every other day for 30 days), the ““recovered” rate” value was “about 81%”. Also, the ““improved” rate” value with cervical erosion (patients treated at the hospital (7), every other day for 30 days) is recorded as “about 15%”. Also, the total effectiveness rate entry with cervical erosion (patients treated at the hospital (7)) is reported as “about 96%”. In addition, in the test on cervical erosion (patients treated at the hospital, P<0.05), the “effectiveness compared with interferon-α suppository” value is on record as “significantly better”. Further, in test [2], the “effect on the secretion of HBsAg by the 2.2.15 cells (in words)” value is on record as “had inhibition effect”; the “inhibition of HBsAg secretion compared with gallic acid and 3,4-dihydroxybenzoic acid” value was “more effective”. The “HBsAg Inhibition rate” value in test [2] (setting [3]) is on record as 18.83%.

The values are drawn from patent publication US8044098B2, “Use of hydroxybenzoic acids and their esters and analogues for preventing or treating virus infection” (Shenghua Guangzhou Pharmaceutical Science & Technology Co., …, priority 2005, dated 2011).
